US10316028B2, “Orexin receptor antagonists” (Heptares Therapeutics Limited, priority 2012, dated 2019)

What follows are compounds tested against T1, human Orexin-2 receptor (Homo sapiens, UniProt O43614) (assay: 3H-EMPA radioligand binding assay). Settings: 3H-EMPA displacement, membranes of HEK293 cells transfected with human Orexin-2 receptor; KI by Cheng-Prussoff; read-out: OX2 pKi ave (converted).
T1 construct: expressed in transfected cells; host or cells: HEK293 cells (transient transfection, Genejuice); membranes
T1 sequence (O43614 1-444): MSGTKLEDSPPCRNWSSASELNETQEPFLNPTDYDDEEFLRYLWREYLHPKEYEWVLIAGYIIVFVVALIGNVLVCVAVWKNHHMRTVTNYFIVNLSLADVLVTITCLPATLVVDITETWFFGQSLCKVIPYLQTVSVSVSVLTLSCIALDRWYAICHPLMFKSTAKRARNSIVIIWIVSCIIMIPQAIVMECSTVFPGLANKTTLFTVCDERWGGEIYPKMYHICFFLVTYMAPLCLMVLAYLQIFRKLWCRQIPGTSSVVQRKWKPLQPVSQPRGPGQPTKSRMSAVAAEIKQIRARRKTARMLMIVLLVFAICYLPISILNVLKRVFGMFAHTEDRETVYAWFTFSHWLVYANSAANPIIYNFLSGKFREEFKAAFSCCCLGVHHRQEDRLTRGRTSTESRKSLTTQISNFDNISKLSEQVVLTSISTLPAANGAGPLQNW
Protocol: cDNA encoding the human Orexin-2 receptor was transfected into HEK293 cells using the transfection reagent Genejuice (Novagen). Forty-eight hours after transfection, cells were harvested and washed twice with ice cold phosphate-buffered saline. The pellet was resuspended in ice-cold buffer containing 20 mM Tris-HCl, pH 7.4, 1 mM EDTA and homogenised with an Ultraturax for 30 s at maximum speed. After centrifugation at 48,000 g for 30 min at 4° C., the pellet was resuspended and spun again. The final pellet was resuspended and frozen at −80° C. before use. Protein concentration was determined using the BCA protein assay method.
^3H-EMPA Radioligand Binding Assay
At the end of the incubation, membranes were filtered onto a unifilter, a 96-well white microplate with bonded GF/B filter pre-incubated with 0.5% polyethylenimine, with a Tomtec cell harvester and washed 4 times with distilled water. […] Radioactivity on the filter was counted (1 min) on a microbeta counter after addition of 50 µL of scintillation fluid. […] IC50 values were derived from the inhibition curve and the equilibrium dissociation constant (KI) values were calculated using the Cheng-Prussoff equation.

Going from `Cc1ccc(N2C(=O)N(Cc3c(F)cccc3Cl)c3ccccc3S2(=O)=O)cc1C` [Example 34, 4-(2-chloro-6-nuorobenzyl)-2-(3,4-dimethylphenyl)-2H-1,2,4-benzothiadiazin-3(4H)-one 1,1-dioxide] to `Cc1ccc(N2C(=O)N(Cc3c(F)cccc3Cl)c3ccccc3S2(=O)=O)cc1F` [Example 43, 4-(2-chloro-6-fluorobenzyl)-2-(3-fluoro-4-methylphenyl)-2H-1,2,4-benzothiadiazin-3(4H)-one 1,1-dioxide], the Ki rises from 1.12 nM to 4.68 nM (4.2-fold).

First: COc1ccccc1N1C(=O)N(Cc2c(F)cccc2Cl)c2ccccc2S1(=O)=O [Example 35, 4-(2-chloro-6-fluorobenzyl)-2-(2-methoxyphenyl)-2H-1,2,4-benzothiadiazin-3(4H)-one 1,1-dioxide]
Second: COc1cccc(N2C(=O)N(Cc3c(F)cccc3Cl)c3ccccc3S2(=O)=O)c1 [Example 36, 4-(2-chloro-6-fluorobenzyl)-2-(3-methoxyphenyl)-2H-1,2,4-benzothiadiazin-3(4H)-one 1,1-dioxide]
The Ki of the first is 2-fold higher: 31.6 nM for the first, 15.8 nM for the second.

Going from `CCc1ccc(N2C(=O)N(Cc3c(F)cccc3Cl)c3ccccc3S2(=O)=O)cc1` [Example 37, 4-(2-chloro-6-fluorobenzyl)-2-(4-ethylphenyl)-2H-1,2,4-benzothiadiazin-3(4H)-one 1,1-dioxide] to `O=C1N(Cc2c(F)cccc2Cl)c2ccccc2S(=O)(=O)N1c1ccc(F)cc1` [Example 44, 4-(2-chloro-6-fluorobenzyl)-2-(4-fluorophenyl)-2H-1,2,4-benzothiadiazin-3(4H)-one 1,1-dioxide], the Ki rises from 5.01 nM to 31.6 nM (6.3-fold).

`Cc1cccc(N2C(=O)N(Cc3c(F)cccc3Cl)c3ccccc3S2(=O)=O)c1C` [Example 38, 4-(2-chloro-6-fluorobenzyl)-2-(2,3-dimethylphenyl)-2H-1,2,4-benzothiadiazin-3(4H)-one 1,1-dioxide] and `Cc1ccc(N2C(=O)N(Cc3c(F)cccc3Cl)c3ccccc3S2(=O)=O)c(C)c1` [Example 45, 4-(2-chloro-6-fluorobenzyl)-2-(2,4-dimethylphenyl)-2H-1,2,4-benzothiadiazin-3(4H)-one 1,1-dioxide] are within 1.5-fold of each other in Ki: 15.8 nM for the first, 16.6 nM for the second.

`O=C1N(Cc2c(F)cccc2Cl)c2ccccc2S(=O)(=O)N1Cc1ccc(F)cc1` [Example 39, 4-(2-chloro-6-fluorobenzyl)-2-(4-fluorobenzyl)-2H-1,2,4-benzothiadiazin-3(4H)-one 1,1-dioxide] and `O=C1N(Cc2c(F)cccc2Cl)c2ccccc2S(=O)(=O)N1Cc1ccccc1` [Example 40, 2-benzyl-4-(2-chloro-6-fluorobenzyl)-2H-1,2,4-benzothiadiazin-3(4H)-one 1,1-dioxide] are within 1.5-fold of each other in Ki: 20 nM for the first, 26.3 nM for the second.

Going from `Cc1ccc(Cl)cc1N1C(=O)N(Cc2c(F)cccc2Cl)c2ccccc2S1(=O)=O` [Example 41, 4-(2-chloro-6-fluorobenzyl)-2-(5-chloro-2-methylphenyl)-2H-1,2,4-benzothiadiazin-3(4H)-one 1,1-dioxide] to `O=C1N(Cc2c(F)cccc2Cl)c2ccccc2S(=O)(=O)N1c1cc(F)ccc1F` [Example 46, 4-(2-chloro-6-fluorobenzyl)-2-(2,5-difluorophenyl)-2H-1,2,4-benzothiadiazin-3(4H)-one 1,1-dioxide], the Ki rises from 25.1 nM to 63.1 nM (2.5-fold).

Going from `O=C1N(Cc2c(F)cccc2Cl)c2ccccc2S(=O)(=O)N1c1cccc(Cl)c1` [Example 42, 4-(2-chloro-6-fluorobenzyl)-2-(3-chlorophenyl)-2H-1,2,4-benzothiadiazin-3(4H)-one 1,1-dioxide] to `CCc1cccc(N2C(=O)N(Cc3c(F)cccc3Cl)c3ccccc3S2(=O)=O)c1` [Example 47, 4-(2-chloro-6-fluorobenzyl)-2-(3-ethylphenyl)-2H-1,2,4-benzothiadiazin-3(4H)-one 1,1-dioxide], the Ki falls from 14.1 nM to 2.51 nM (5.6-fold).

Compared with `CC(C)c1ccc(N2C(=O)N(Cc3c(F)cccc3Cl)c3ccccc3S2(=O)=O)cc1` [Example 48, 4-(2-chloro-6-fluorobenzyl)-2-[4-(propan-2-yl)phenyl]-2H-1,2,4-benzothiadiazin-3(4H)-one 1,1-dioxide], `CSc1cccc(N2C(=O)N(Cc3c(F)cccc3Cl)c3ccccc3S2(=O)=O)c1` [Example 49, 4-(2-chloro-6-fluorobenzyl)-2-[3-(methylsulfanyl)phenyl]-2H-1,2,4-benzothiadiazin-3(4H)-one 1,1-dioxide] is 3.5-fold lower in Ki: 3.72 nM for the first, 1.05 nM for the second.

Going from `CSc1cccc(N2C(=O)N(Cc3ccc(F)cc3Cl)c3ccccc3S2(=O)=O)c1` [Example 50, 4-(2-chloro-4-fluorobenzyl)-2-[3-(methylsulfanyl)phenyl]-2H-1,2,4-benzothiadiazin-3(4H)-one 1,1-dioxide] to `CSc1cccc(N2C(=O)N(Cc3cc(C)ccc3C)c3ccccc3S2(=O)=O)c1` [Example 51, 4-(2,5-dimethylbenzyl)-2-[3-(methylsulfanyl)phenyl]-2H-1,2,4-benzothiadiazin-3(4H)-one 1,1-dioxide], the Ki falls from 35.5 nM to 17.8 nM (2-fold).

First: COC(=O)c1ccc(OC)c(CN2C(=O)N(c3cccc(SC)c3)S(=O)(=O)c3ccccc32)c1 [Example 52, methyl 3-({2-[3-(methylsulfanyl)phenyl]-1,1-dioxido-3-oxo-2,3-dihydro-4H-1,2,4-benzothiadiazin-4-yl}methyl)-4-methoxybenzoate]
Second: COC(=O)c1ccc(OC)c(CN2C(=O)N(c3ccc(OC)c(OC)c3)S(=O)(=O)c3ccccc32)c1 [Example 60, methyl 3-{[2-(3,4-dimethoxyphenyl)-1,1-dioxido-3-oxo-2,3-dihydro-4H-1,2,4-benzothiadiazin-4-yl]methyl}-4-methoxybenzoate]
The Ki of the first is 15-fold lower: 2.63 nM for the first, 40.7 nM for the second.

`Cc1ccc(N2C(=O)N(Cc3ccccc3F)c3ccccc3S2(=O)=O)cc1Cl` [Example 53, 4-(2-fluorobenzyl)-2-(3-chloro-4-methylphenyl)-2H-1,2,4-benzothiadiazin-3(4H)-one 1,1-dioxide] and `Cc1ccc(N2C(=O)N(Cc3ccccc3C)c3ccccc3S2(=O)=O)cc1Cl` [Example 54, 4-(2-methylbenzyl)-2-(3-chloro-4-methylphenyl)-2H-1,2,4-benzothiadiazin-3(4H)-one 1,1-dioxide] are within 1.5-fold of each other in Ki: 31.6 nM for the first, 43.7 nM for the second.

`Cc1cc(C)cc(N2C(=O)N(Cc3ccccc3Cl)c3ccccc3S2(=O)=O)c1` [Example 55, 4-(2-chlorobenzyl)-2-(3,5-dimethylphenyl)-2H-1,2,4-benzothiadiazin-3(4H)-one 1,1-dioxide] and `Cc1cc(C)cc(N2C(=O)N(Cc3ccccc3F)c3ccccc3S2(=O)=O)c1` [Example 56, 4-(2-fluorobenzyl)-2-(3,5-dimethylphenyl)-2H-1,2,4-benzothiadiazin-3(4H)-one 1,1-dioxide] are within 1.5-fold of each other in Ki: 30.9 nM for the first, 20.9 nM for the second.

First: Cc1ccc(N2C(=O)N(Cc3ccccc3F)c3ccccc3S2(=O)=O)cc1C [Example 57, 4-(2-fluorobenzyl)-2-(3,4-dimethylphenyl)-2H-1,2,4-benzothiadiazin-3(4H)-one 1,1-dioxide]
Second: Cc1ccc(N2C(=O)N(Cc3ccccc3Cl)c3ccccc3S2(=O)=O)cc1C [Example 59, 4-(2-chlorobenzyl)-2-(3,4-dimethylphenyl)-2H-1,2,4-benzothiadiazin-3(4H)-one 1,1-dioxide]
The Ki of the first is 1.9-fold lower: 23.4 nM for the first, 43.7 nM for the second.

Compared with `O=C1N(Cc2ccccc2Cl)c2ccccc2S(=O)(=O)N1Cc1ccccc1` [Example 58, 2-benzyl-4-(2-chlorobenzyl)-2H-1,2,4-benzothiadiazin-3(4H)-one 1,1-dioxide], `N#Cc1ccc(CN2C(=O)N(Cc3c(F)cccc3F)c3ccccc3S2(=O)=O)cc1F` [Example 65, 4-{[4-(2,6-Difluorobenzyl)-1,1-dioxido-3-oxo-3,4-dihydro-2H-1,2,4-benzothiadiazin-2-yl]methyl}-2-fluorobenzonitrile] is 4.7-fold lower in Ki: 933 nM for the first, 200 nM for the second.

Compared with `CSc1cccc(N2C(=O)N(CC3CCC3)c3ccccc3S2(=O)=O)c1` [Example 61, 4-(Cyclobutylmethyl)-2-[3-(methylsulfanyl)phenyl]-2H-1,2,4-benzothiadiazin-3(4H)-one 1,1-dioxide], `CSc1cccc(N2C(=O)N(CC3CCCCC3)c3ccccc3S2(=O)=O)c1` [Example 62, 4-(Cyclohexylmethyl)-2-[3-(methylsulfanyl)phenyl]-2H-1,2,4-benzothiadiazin-3(4H)-one 1,1-dioxide] is 3.2-fold higher in Ki: 269 nM for the first, 871 nM for the second.

`CSc1cccc(N2C(=O)N(C(C)c3ccccc3F)c3ccc(F)cc3S2(=O)=O)c1` (centres unmarked) [Example 63, 7-Fluoro-4-[1-(2-fluorophenyl)ethyl]-2-[3-(methylsulfanyl)phenyl]-2H-1,2,4-benzothiadiazin-3(4H)-one 1,1-dioxide] and `O=C1N(Cc2c(F)cccc2Cl)c2ccccc2S(=O)(=O)N1CC1CCCCC1` [Example 64, 4-(2-Chloro-6-fluorobenzyl)-2-(cyclohexylmethyl)-2H-1,2,4-benzothiadiazin-3(4H)-one 1,1-dioxide] are within 1.5-fold of each other in Ki: 832 nM for the first, 661 nM for the second.
